Test results from US20240246966A1, “NEW PYRAZOLO[1,5-a] PYRIMIDINE DERIVATIVES AS SIGMA LIGANDS” (ACONDICIONAMIENTO TARRASENSE, priority 2021, published 2024).

Experiments:
[1] = biological target: T1, Human σ2/TMEM97 receptor (Homo sapiens, UniProt Q5BJF2); experiment: Binding assay to human σ2/TMEM97 receptor ([3H]-DTG, transfected HEK-293 membranes); conditions: human σ2/TMEM97, [3H]-DTG 10 nM, binding expressed as Ki, read-out: Binding σ-2
T1 construct: expressed in transfected cells; host or cells: HEK-293
Experimental: Binding Assay to Human ρ2/TMEM97 Receptor
Transfected HEK-293 membranes (15 μg) were incubated with 10 nM [^3H]-1,3-Di-o-tolylguanidine ( DTG) in assay buffer containing Tris-HCl 50 mM at pH 8.0. NSB (non-specific binding) was measured by adding 10 μM haloperidol. The binding of the test compound was measured at either one concentration (% inhibition at 1 or 10 μM) or five different concentrations to determine affinity values (Ki). Plates were incubated at 25° C. for 120 minutes. After the incubation period, the reaction mix was transferred to MultiScreen HTS, FC plates (Millipore), filtered and washed 3 times with ice-cold 10 mM Tris-HCL (pH 8.0). Filters were dried and counted at approximately 40% efficiency in a MicroBeta scintillation counter (Perkin-Elmer) using EcoScint liquid scintillation cocktail.

[2] = biological target: T2, Human σ1 Receptor (Homo sapiens, UniProt Q99720); experiment: Human σ1 receptor radioligand assay ([3H](+)-pentazocine, transfected HEK-293 membranes); conditions: human σ1, [3H](+)-pentazocine 5 nM, binding expressed as Ki, read-out: Binding σ-1
T2 construct: expressed in transfected cells; host or cells: HEK-293
Experimental: Human σ1 Receptor Radioligand Assay
Transfected HEK-293 membranes (7 μg) were incubated with 5 nM of [^3H](+)-pentazocine in assay buffer containing Tris-HCl 50 mM at pH 8. NBS (non-specific binding) was measured by adding 10 μM haloperidol. The binding of the test compound was measured at either one concentration (% inhibition at 1 or 10 μM) or five different concentrations to determine affinity values (Ki). Plates were incubated at 37° C. for 120 minutes. After the incubation period, the reaction mix was then transferred to MultiScreen HTS, FC plates (Millipore), filtered and plates were washed 3 times with ice-cold 10 mM Tris-HCL (pH 7.4). Filters were dried and counted at approximately 40% efficiency in a MicroBeta scintillation counter (Perkin-Elmer) using EcoScint liquid scintillation cocktail.

[3] = biological target: sigma-2 (σ2) site (Homo sapiens, UniProt Q5BJF2); conditions: background statement; cited from earlier work
[4] = test system: mechanical hypersensitivity in SNI mice; conditions: spared nerve injury (SNI) mice model of neuropathic pain; cited from earlier work

T1 sequence (Q5BJF2 whole entry): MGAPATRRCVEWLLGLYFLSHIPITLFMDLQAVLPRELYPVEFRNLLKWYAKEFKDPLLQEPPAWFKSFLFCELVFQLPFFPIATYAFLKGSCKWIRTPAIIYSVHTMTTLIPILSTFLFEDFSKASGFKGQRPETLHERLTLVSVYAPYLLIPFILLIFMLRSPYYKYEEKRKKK
T2 sequence (Q99720 whole entry): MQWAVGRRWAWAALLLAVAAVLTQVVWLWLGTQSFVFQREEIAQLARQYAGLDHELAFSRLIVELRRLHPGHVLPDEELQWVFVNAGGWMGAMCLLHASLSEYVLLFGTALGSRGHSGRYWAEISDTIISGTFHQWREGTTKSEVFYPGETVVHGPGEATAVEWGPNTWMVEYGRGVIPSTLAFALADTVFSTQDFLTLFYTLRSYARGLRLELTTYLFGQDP
sigma-2 (σ2) site, sequence (Q5BJF2 whole entry): as the sequence (Q5BJF2 whole entry) above

Compound	Ki [1]	Ki [2]	affinity for the sigma-2 (σ2) site [3]	mechanical hypersensitivity [4]
FC(F)(F)c1cc(-c2cnn3cc(CN4CCC5(CC4)COC5)ccc23)ccn1 [Example 57, 7-((3-(2-(Trifluoromethyl)pyridin-4-yl)pyrazolo[1,5-a]pyridin-6-yl)methyl)-2-oxa-7-azaspiro[3.5]nonane]	100 to 500 nM	< 100 nM		
FC(F)(F)c1cc(-n2ncc3cc(CN4CCC5(CC4)COC5)cnc32)ccn1 [Example 58, 7-((1-(2-(Trifluoromethyl)pyridin-4-yl)-1H-pyrazolo[3,4-b]pyridin-5-yl)methyl)-2-oxa-7-azaspiro[3.5]nonane]	100 to 500 nM	< 100 nM		
OCC1(CO)CCN(Cc2cnc3c(-c4ccnc(C(F)(F)F)c4)cnn3c2)CC1 [Example 59, (1-((3-(2-(Trifluoromethyl)pyridin-4-yl)pyrazolo[1,5-a]pyrimidin-6-yl)methyl)piperidine-4,4-diyl)dimethanol]	> 1000 nM	< 100 nM		
OCC1(CCl)CCN(Cc2cnc3c(-c4ccnc(C(F)(F)F)c4)cnn3c2)CC1 [Example 60, (4-(Chloromethyl)-1-((3-(2-(trifluoromethyl)pyridin-4-yl)pyrazolo[1,5-a]pyrimidin-6-yl)methyl)piperidin-4-yl)methanol]	100 to 500 nM	< 100 nM		
(+)-SKF-10047			micromolar affinity	
UKH-1114				relieved mechanical hypersensitivity
